Results on 18 compounds are retold here after patent US20160002204A1 (Board of Regents, The University of Texas System, priority 2014, published 2016).

As usually defined, the IC50 is the point on the concentration scale where inhibition reaches its midpoint. A word on the EC50: it is the concentration at which the effect is half-maximal. Lower therefore signals a more potent agent.

A value given as a limit tells only on which side of the number the result lay.

Assay [1] addresses T1, GLS1 (purified recombinant human GAC) (Homo sapiens, UniProt O94925).
T1 sequence (O94925 55-598 isoform O94925-3 limits assumed): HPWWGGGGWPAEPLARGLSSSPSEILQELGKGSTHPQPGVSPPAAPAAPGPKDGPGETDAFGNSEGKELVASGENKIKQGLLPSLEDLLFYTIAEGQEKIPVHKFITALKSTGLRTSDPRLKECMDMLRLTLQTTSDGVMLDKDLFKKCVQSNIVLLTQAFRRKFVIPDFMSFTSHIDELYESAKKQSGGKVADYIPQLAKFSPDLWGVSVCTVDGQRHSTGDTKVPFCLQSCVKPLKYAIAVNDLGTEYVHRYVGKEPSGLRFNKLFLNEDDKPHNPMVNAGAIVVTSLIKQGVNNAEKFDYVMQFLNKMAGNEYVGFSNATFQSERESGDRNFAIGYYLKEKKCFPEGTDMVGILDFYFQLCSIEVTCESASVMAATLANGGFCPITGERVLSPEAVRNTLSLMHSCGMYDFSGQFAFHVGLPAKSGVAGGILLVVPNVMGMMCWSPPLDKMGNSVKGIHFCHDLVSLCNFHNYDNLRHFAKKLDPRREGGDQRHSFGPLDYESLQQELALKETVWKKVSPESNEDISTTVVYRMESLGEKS
The assay can be described thus: GLS1 enzymatic activity assay (dual-coupled, Amplex UltraRed/resorufin). Type of assay: biochemical. An outline of the steps: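 GAC activity measured by coupling glutamate to glutamate oxidase and HRP, generating resorufin from Amplex UltraRed. Enzyme (2 nM) preincubated with 50 mM potassium phosphate 10 min at room temperature, then inhibitor 10 min; 1 mM glutamine substrate, 1% DMSO. Fluorescence 530/590 nm, kinetic or 20-min endpoint; IC50 from four-parameter logistic fit.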

For a further assay, the system named is A549 cells. The assay can be described thus: A549 proliferation (viability) assay, Cell Titer Fluor, 72 hours. Conditions: Homo sapiens. The class given is cell-based. The procedure, abridged:
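A549 cells in RPMI 1640 with 10% dialyzed FBS were seeded at 1000 cells/well, grown 24 h, then exposed to compound (0.5% DMSO final) for 72 h at 37 °C, 5% CO2. Viability was read by Cell Titer Fluor fluorescence; EC50 from four-parameter logistic fit.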

For the compound `O=C(CN1CCCC(F)C1)Nc1ccn(CCC(F)Cn2cc(C(=O)NCc3cccc(OC(F)(F)F)c3)nn2)c(=O)c1F` (stereo not drawn) [Example 291, 1-(2-fluoro-4-{3-fluoro-4-[2-(3-fluoropiperidin-1-yl)acetamido]-2-oxo-1,2-dihydropyridin-1-yl}butyl)-N-{[3-(trifluoromethoxy)phenyl]methyl}-1H-1,2,3-triazole-4-carboxamide], in assay [1], the concentration for half-maximal inhibition (IC50) is less than 100 nM. Besides, the EC50 with A549 cells was less than 100 nM.
On to `CC(C)(C)OC(=O)Nc1ccn(CCC(F)Cn2cc(C(=O)NCc3cc(Cl)ccc3F)nn2)c(=O)c1` (stereo not drawn) [Example 233, tert-butyl N-{1-[4-(4-{[(5-chloro-2-fluorophenyl)methyl]carbamoyl}-1H-1,2,3-triazol-1-yl)-3-fluorobutyl]-2-oxo-1,2-dihydropyridin-4-yl}carbamate], for which the IC50 in assay [1] is less than 100 nM. Moreover, the 50% effective concentration (EC50) in the assay with A549 cells lay in the range of 500 to 5000 nM.
The matching figures for `Cc1ccc(CNC(=O)c2cn(CC(F)CCn3ccc(NC(=O)CC4CCCCC4)c(F)c3=O)nn2)cn1` (stereo not drawn) [Example 266, 1-{4-[4-(2-cyclohexylacetamido)-3-fluoro-2-oxo-1,2-dihydropyridin-1-yl]-2-fluorobutyl}-N-[(6-methylpyridin-3-yl)methyl]-1H-1,2,3-triazole-4-carboxamide]: less than 100 nM and less than 100 nM.
In the case of `O=C(NCc1cccc(OC(F)(F)F)c1)c1cn(CC(F)CCn2ccc(NC(=O)C3CCCC3)c(F)c2=O)nn1` (stereo not drawn) [Example 342, 1-[4-(4-cyclopentaneamido-3-fluoro-2-oxo-1,2-dihydropyridin-1-yl)-2-fluorobutyl]-N-{[3-(trifluoromethoxy)phenyl]methyl}-1H-1,2,3-triazole-4-carboxamide], in assay [1], the concentration for half-maximal inhibition (IC50) was less than 100 nM. Also, in the assay with A549 cells, the concentration giving a half-maximal response (EC50) was less than 100 nM.
`O=C(Cc1ccccc1)Nc1ccn(CCCCc2nnc(C(=O)NCc3cccc(OC(F)(F)F)c3)s2)c(=O)c1` [Example 438, 5-{4-[2-oxo-4-(2-phenylacetamido)-1,2-dihydropyridin-1-yl]butyl}-N-{[3-(trifluoromethoxy)phenyl]methyl}-1,3,4-thiadiazole-2-carboxamide]: the IC50 in assay [1] was less than 100 nM. The compound further gave a concentration giving a half-maximal response (EC50) in the assay on A549 cells of less than 100 nM.
Consider `O=C(Cc1cccc(OC(F)(F)F)c1)Nc1ccc(CCCCn2ccc(NC(=O)CCO)nc2=O)nn1` [Example 117, 3-hydroxy-N-{2-oxo-1-[4-(6-{2-[3-(trifluoromethoxy)phenyl]acetamido}pyridazin-3-yl)butyl]-1,2-dihydropyrimidin-4-yl}propanamide], for which the IC50 in assay [1] is less than 100 nM. Also, the EC50 with A549 cells is 500 to 5000 nM.
The matching figures for `O=C(Cc1ccccc1)Nc1ccn(CCC(F)Cn2cc(C(=O)NCc3ccc(OC(F)(F)F)cn3)nn2)c(=O)c1F` (stereo not drawn) [Example 409, 1-{2-fluoro-4-[3-fluoro-2-oxo-4-(2-phenylacetamido)-1,2-dihydropyridin-1-yl]butyl}-N-{[5-(trifluoromethoxy)pyridin-2-yl]methyl}-1H-1,2,3-triazole-4-carboxamide]: less than 100 nM and less than 100 nM.
With `O=C(CC1CCCC1)Nc1ccn(CCC(F)Cn2cc(C(=O)NCc3ccc(C(F)(F)F)cn3)nn2)c(=O)c1F` (stereo not drawn) [Example 394, 1-{4-[4-(2-cyclopentylacetamido)-3-fluoro-2-oxo-1,2-dihydropyridin-1-yl]-2-fluorobutyl}-N-{[5-(trifluoromethyl)pyridin-2-yl]methyl}-1H-1,2,3-triazole-4-carboxamide], the IC50 in assay [1] is less than 100 nM. For the same compound, the concentration giving a half-maximal response (EC50) in the assay on A549 cells was less than 100 nM.
As to `CNC(=O)Nc1nnc(CCCCn2ccc(NC(=O)CC3CCCC3)c(F)c2=O)s1` [Example 132, 2-cyclopentyl-N-(3-fluoro-1-(4-(5-(3-methylureido)-1,3,4-thiadiazol-2-yl)butyl)-2-oxo-1,2-dihydropyridin-4-yl)acetamide], in assay [1], the half-maximal inhibitory concentration (IC50) was in the range of 100 to 500 nM. Further, in the assay on A549 cells, the concentration giving a half-maximal response (EC50) was greater than 5000 nM.
For `O=C(Nc1ccn(CCC(F)Cn2cc(C(=O)NCc3cc(C(F)(F)F)ccn3)nn2)c(=O)c1F)C(=O)N1CCCCC1` (stereo not drawn) [Example 423, 1-(2-fluoro-4-{3-fluoro-2-oxo-4-[2-oxo-2-(piperidin-1-yl)acetamido]-1,2-dihydropyridin-1-yl}butyl)-N-{[4-(trifluoromethyl)pyridin-2-yl]methyl}-1H-1,2,3-triazole-4-carboxamide], in that order: less than 100 nM and 100 to 500 nM.
The matching figures for `Nc1ccn(CCC(F)Cn2cc(C(=O)NCc3cc(OC(F)(F)F)ccc3F)nn2)c(=O)c1F` (stereo not drawn) [Example 430, 1-[4-(4-amino-3-fluoro-2-oxo-1,2-dihydropyridin-1-yl)-2-fluorobutyl]-N-{[2-fluoro-5-(trifluoromethoxy)phenyl]methyl}-1H-1,2,3-triazole-4-carboxamide]: 500 to 5000 nM and greater than 5000 nM.
The matching figures for `O=C(NCc1cc(C(F)(F)F)ccn1)c1cn(CC(F)CCn2ccc(COc3cccc(OC(F)(F)F)c3)cc2=O)nn1` (stereo not drawn) [Example 483, 1-(2-fluoro-4-{2-oxo-4-[3-(trifluoromethoxy)phenoxymethyl]-1,2-dihydropyridin-1-yl}butyl)-N-{[4-(trifluoromethyl)pyridin-2-yl]methyl}-1H-1,2,3-triazole-4-carboxamide]: less than 100 nM and 100 to 500 nM.
For the compound `O=C(CC1CCCC1)Nc1ccn(CCCCc2nnc(NC(=O)NCc3ccccc3)s2)c(=O)c1F` [Example 130, N-(1-(4-(5-(3-benzylureido)-1,3,4-thiadiazol-2-yl)butyl)-3-fluoro-2-oxo-1,2-dihydropyridin-4-yl)-2-cyclopentylacetamide], in assay [1], the IC50 is less than 100 nM. The concentration for a half-maximal effect (EC50) in the assay with A549 cells lay in the range of 500 to 5000 nM.
For `CO[C@@H](C(=O)Nc1ccn(CCC(F)Cn2cc(C(=O)NCc3cccc(OC(F)(F)F)c3)nn2)c(=O)c1)c1ccccc1` (stereo partly drawn) [Example 186, 1-(2-fluoro-4-{4-[(2R)-2-methoxy-2-phenylacetamido]-2-oxo-1,2-dihydropyridin-1-yl}butyl)-N-{[3-(trifluoromethoxy)phenyl]methyl}-1H-1,2,3-triazole-4-carboxamide], in that order: less than 100 nM and less than 100 nM.
For `Nc1ccn(CCC(F)Cn2cc(C(=O)NCc3ccc(C(F)(F)F)nc3)nn2)c(=O)c1F` (stereo not drawn) [Example 366, 1-[4-(4-amino-3-fluoro-2-oxo-1,2-dihydropyridin-1-yl)-2-fluorobutyl]-N-{[6-(trifluoromethyl)pyridin-3-yl]methyl}-1H-1,2,3-triazole-4-carboxamide], in that order: greater than 5000 nM and greater than 5000 nM.
For `O=C(Cc1ccccc1)Nc1ccn(CCCCCn2ccc(NC(=O)Cc3ccccc3)nc2=O)c(=O)n1` [Example 71, N-(2-oxo-1-{5-[2-oxo-4-(2-phenyl-acetamido)-1,2-dihydropyrimidin-1-yl]pentyl}-1,2-dihydropyrimidin-4-yl)-2-phenylacetamide], in that order: 500 to 5000 nM and greater than 5000 nM.
For the compound `Cc1ccc(CNC(=O)c2cn(CCCCn3ccc(NC(=O)Cc4cccc(OC(F)(F)F)c4)cc3=O)nn2)cn1` [Example 70, N-[(6-methylpyridin-3-yl)methyl]-1-[4-(2-oxo-4-{2-[3-(trifluoromethoxy)phenyl]acetamido}-1,2-dihydropyridin-1-yl)butyl]-1H-1,2,3-triazole-4-carboxamide], the IC50 in assay [1] was less than 100 nM. The concentration for a half-maximal effect (EC50) with A549 cells was in the range of 500 to 5000 nM.
The matching figures for `CC(C)OC(=O)Nc1ccn(CCC(F)Cn2cc(C(=O)NCc3cccc(OC(F)(F)F)c3)nn2)c(=O)c1F` (stereo not drawn) [Example 354]: less than 100 nM and less than 100 nM.
